Data reported in the NIST ThermoML archive (doi:10.1021/je4009415).
± gives the expanded uncertainty stated by the source.

Experiment: xn = mol fraction of the nth substance listed
Settings: Liquid, Vibrating tube method

CCC(=O)OC [methyl propanoate] + CCCCCCC
Settings	mass density [kg/m3]
288.15 K, x1 = 0.0584	696.1 ± 0.27
288.15 K, x1 = 0.1524	710.11 ± 0.29
288.15 K, x1 = 0.2121	719.49 ± 0.31
288.15 K, x1 = 0.2626	728.22 ± 0.33
288.15 K, x1 = 0.2841	731.88 ± 0.34
288.15 K, x1 = 0.3577	745.5 ± 0.37
288.15 K, x1 = 0.4021	754.13 ± 0.39
288.15 K, x1 = 0.4565	765.31 ± 0.41
288.15 K, x1 = 0.5036	775.51 ± 0.44
288.15 K, x1 = 0.5554	787.28 ± 0.47
288.15 K, x1 = 0.6032	798.81 ± 0.5
288.15 K, x1 = 0.651	810.73 ± 0.53
288.15 K, x1 = 0.7008	824.05 ± 0.57
288.15 K, x1 = 0.742	835.61 ± 0.61
288.15 K, x1 = 0.7927	850.46 ± 0.66
288.15 K, x1 = 0.8457	866.96 ± 0.71
288.15 K, x1 = 0.953	903.48 ± 0.84
288.15 K, x1 = 1	921.21 ± 0.89
298.15 K, x1 = 0.0606	687.94 ± 0.27
298.15 K, x1 = 0.1046	694.01 ± 0.28
298.15 K, x1 = 0.1706	703.97 ± 0.3
298.15 K, x1 = 0.2332	713.99 ± 0.32
298.15 K, x1 = 0.2863	722.89 ± 0.34
298.15 K, x1 = 0.332	730.95 ± 0.35
298.15 K, x1 = 0.3827	740.59 ± 0.37
298.15 K, x1 = 0.4242	748.73 ± 0.39
298.15 K, x1 = 0.4831	760.98 ± 0.42
298.15 K, x1 = 0.5328	771.82 ± 0.45
298.15 K, x1 = 0.5887	784.89 ± 0.49
298.15 K, x1 = 0.6395	797.24 ± 0.52
298.15 K, x1 = 0.6831	808.46 ± 0.55
298.15 K, x1 = 0.733	821.94 ± 0.59
298.15 K, x1 = 0.7758	834.28 ± 0.63
298.15 K, x1 = 0.8196	847.29 ± 0.67
298.15 K, x1 = 0.8646	861.68 ± 0.72
298.15 K, x1 = 0.9035	874.46 ± 0.76
298.15 K, x1 = 0.9591	893.83 ± 0.83
298.15 K, x1 = 1	909.1 ± 0.88
308.15 K, x1 = 0.046	676.88 ± 0.27
308.15 K, x1 = 0.0974	683.97 ± 0.28
308.15 K, x1 = 0.1499	691.6 ± 0.29
308.15 K, x1 = 0.2093	700.71 ± 0.31
308.15 K, x1 = 0.2472	706.83 ± 0.32
308.15 K, x1 = 0.2655	709.84 ± 0.33
308.15 K, x1 = 0.3021	716.16 ± 0.34
308.15 K, x1 = 0.3462	723.99 ± 0.36
308.15 K, x1 = 0.3973	733.51 ± 0.38
308.15 K, x1 = 0.4379	741.49 ± 0.4
308.15 K, x1 = 0.5001	754.33 ± 0.43
308.15 K, x1 = 0.5482	764.86 ± 0.46
308.15 K, x1 = 0.6013	777.11 ± 0.49
308.15 K, x1 = 0.6438	787.52 ± 0.52
308.15 K, x1 = 0.7002	801.92 ± 0.56
308.15 K, x1 = 0.7516	815.93 ± 0.6
308.15 K, x1 = 0.7947	828.3 ± 0.64
308.15 K, x1 = 0.8541	846.5 ± 0.7
308.15 K, x1 = 0.8904	858.19 ± 0.74
308.15 K, x1 = 0.9494	878.31 ± 0.81
308.15 K, x1 = 1	896.91 ± 0.86
318.15 K, x1 = 0.054	669.26 ± 0.27
318.15 K, x1 = 0.1006	675.53 ± 0.28
318.15 K, x1 = 0.1635	684.64 ± 0.29
318.15 K, x1 = 0.1984	689.88 ± 0.3
318.15 K, x1 = 0.2627	699.98 ± 0.32
318.15 K, x1 = 0.2892	704.22 ± 0.33
318.15 K, x1 = 0.3492	714.64 ± 0.36
318.15 K, x1 = 0.3962	723.32 ± 0.38
318.15 K, x1 = 0.4482	733.48 ± 0.4
318.15 K, x1 = 0.5006	744.15 ± 0.42
318.15 K, x1 = 0.554	755.69 ± 0.45
318.15 K, x1 = 0.5928	764.54 ± 0.48
318.15 K, x1 = 0.6531	779.07 ± 0.52
318.15 K, x1 = 0.7022	791.53 ± 0.55
318.15 K, x1 = 0.7463	803.36 ± 0.59
318.15 K, x1 = 0.796	817.45 ± 0.63
318.15 K, x1 = 0.8421	831.26 ± 0.67
318.15 K, x1 = 0.8911	846.73 ± 0.72
318.15 K, x1 = 0.9487	866.17 ± 0.79
318.15 K, x1 = 1	884.71 ± 0.84
328.15 K, x1 = 0.0434	659.02 ± 0.27
328.15 K, x1 = 0.1	666.42 ± 0.28
328.15 K, x1 = 0.1539	673.86 ± 0.29
328.15 K, x1 = 0.2137	682.78 ± 0.31
328.15 K, x1 = 0.263	690.45 ± 0.32
328.15 K, x1 = 0.361	707.07 ± 0.36
328.15 K, x1 = 0.3858	711.54 ± 0.37
328.15 K, x1 = 0.4619	725.95 ± 0.4
328.15 K, x1 = 0.5057	734.85 ± 0.42
328.15 K, x1 = 0.5548	745.3 ± 0.45
328.15 K, x1 = 0.6006	755.62 ± 0.48
328.15 K, x1 = 0.6513	767.59 ± 0.51
328.15 K, x1 = 0.7013	780.04 ± 0.54
328.15 K, x1 = 0.7484	792.52 ± 0.58
328.15 K, x1 = 0.7954	805.67 ± 0.62
328.15 K, x1 = 0.8441	820.03 ± 0.66
328.15 K, x1 = 0.8954	836.18 ± 0.72
328.15 K, x1 = 0.9351	849.33 ± 0.76
328.15 K, x1 = 1	872.22 ± 0.83
